Measurements reported in patent US20140308207A1, “OPEN MICROFLUIDIC DEVICES FOR CHEMOTAXIS, METHODS OF USING SAME, AND APPLICATIONS OF SAME” (priority 2013, published 2014).

Key:
myeloid cells = assay: Intravital imaging of a mouse with microfluidic coverslip; format: in vivo; details: 50 ng/ml added through coverslip device
[1] = tested on: Dictyostelium discoideum cells
Text: Cells were readily loaded by micropipetting into the cell loading area where they were allowed to settle and adhere to the silica cover slip. The channels were primed with buffer by a syringe; we observed that the cells randomly migrated on the surface. Once the cells adhered, cAMP was pumped in to form a chemoattractant gradient. To perform this function, a Harvard apparatus pump was used to create positive pressure on the chemoattractant loaded syringe.
As shown in FIG. 6(a), tracks of seven individual cells (A-G) migrating toward the cAMP source openings (open circles). The starting point for each cell is marked with and X. Scale bar is 20 μm. B.) Quantitation of the migration parameters for cells A-G. In the table as shown in FIG. 6(b), V, C.I., and P represent velocity (microns/min.), chemotactic index, and persistence, respectively. The multiple data points in the table for cells A-G represent different sections of the path as the cell traveled toward the cAMP source.
The cell buffer was used for water immersion.
The device was connected to an inlet and outlet syringe on a Harvard Apparatus syringe pump using microfluidic tubing. […]
In order to visualize the migration of cells and record the specifics of chemotactic response; a program was written with LabVIEW™ software. […] The measured centroids are overlayed on the image data so that the tracking of the cell can be visually verified. […]

[2] = tested on: Dictyostelium discoideum cells; details: AX2 cells expressing RBD-GFP, 10 μM cAMP, bulk silica device, cells A-E tracked
Text: (Jowhar, et al., 2010.) D. discoideum cells expressing the Ras Binding Domain of Rafl and fused to the green fluorescent protein (RBD-GFP) were loaded into the open cell ports and exposed to gradients of the chemoattractant cAMP, as shown in FIG. 1E. […] Each 3 mm cell loading port was exposed to three different sources of cAMP (from three 3.0 μm gradient generating ports) under the control of a syringe or Harvard apparatus pump, which serves as a chemoattractant supply device. The syringe pump was used to apply a constant positive pressure to the loaded syringe, thus, preventing fluctuations in the gradient from potential backflow created by negative pressure.
A number of solitary cells that could be followed continuously were tracked using the Cell Tracker program written in LabVIEW™ software (FIG. 3a).
The starting point for each cell is marked with and X. Scale bar is 10 μm. In the table as shown in FIG. 3(b), V, C.I., and P represent velocity (microns/min.), chemotactic index, and persistence, respectively. The same cells were measured at different points along the traveled path to the source and are scored more than once. […]
In order to visualize the migration of cells and record the specifics of chemotactic response; a program was written with LabVIEW™ software. […] The measured centroids are overlayed on the image data so that the tracking of the cell can be visually verified.

Row | Molecule | migration rates of myeloid cells (myeloid cells) | chemotaxis indices and persistence ([1]; AX2 cells expressing RBD-GFP, 100 nM cAMP, silica coverslip device with five ports, cells A-G tracked) | cell migration toward gradient ports ([1]; cells expressing LimE-RFP, cover slip device with three 15 μm ports, upright microscope, 80-minute series) | chemotaxis indices and persistence toward the source [2]
1 | epidermal growth factor: growth factor added through the microfluidic coverslip to alter myeloid cell migration | migration rates altered |  |  | 
2 | Nc1ncnc2c1ncn2[C@@H]1O[C@@H]2COP(=O)(O)O[C@H]2[C@H]1O [cAMP, cyclic adenosine monophosphate] |  | good chemotaxis indices and persistence | rapidly migrated towards and into the cAMP gradient cover slip ports | strong chemotaxis indices and persistence
